Columns and labels:
[1] = tested on: tonsil-derived human MSCs; assay: Cell viability after NAC pretreatment for 24 hours (determination of NAC pretreatment concentration); details: NAC 10 mM, FIG. 1
Protocol: In order to determine the concentration of NAC for pretreatment of tonsil-derived human MSCs, the tonsil-derived human MSCs were pretreated with NAC prepared in Example 1 at concentrations of 2, 4, 6, 8, 10, 15, and 100 mM for 24 hours, and then cell viability was evaluated.

[2] = tested on: tonsil-derived human MSCs (hMSC-T, passage 6); assay: Cell viability (WST, absorbance at 450 nm) upon NAC pretreatment followed by PYBR treatment; format: cell-based; details: NAC pretreatment 10 mM and 20 mM for 24 hours, then PYBR 5, 10, 20 μg/mL for 24 hours; FIG. 3
Protocol: In order to evaluate cell viability upon NAC treatment, tonsil-derived human MSCs (hMSC-T, passage 6) were seeded in a culture medium at a density of 1×10^3 cells/well. On the following day, NAC was treated at concentrations of 10 mM and 20 mM for 24 hours. Thereafter, the cells were washed with PBS and the medium was replaced, followed by treatment with PYBR at concentrations of 5, 10, and 20 μg/mL. After 24 hours, the cells were washed three times with PBS and transferred to fresh medium (100 μL) containing 10 μL of WST solution, and incubated at 37° C. for 2 hours in the dark. Absorbance at 450 nm was then measured to evaluate cell viability (FIG. 2). A group not treated with NAC was used as a positive control.

[3] = tested on: tonsil-derived human MSCs (hMSC-T, passage 6); assay: Antioxidant activity (ROS assay) upon NAC pretreatment followed by PYBR treatment; format: cell-based; details: NAC pretreatment 10 mM and 20 mM for 24 hours, then PYBR 5, 10, 20 μg/mL for 24 hours; FIG. 5
Protocol: In order to evaluate antioxidant activity upon NAC treatment, tonsil-derived human MSCs (hMSC-T, passage 6) were seeded in a culture medium at a density of 1×10^4 cells/well. On the following day, NAC was treated at concentrations of 10 mM and 20 mM for 24 hours. Thereafter, the cells were washed with PBS and the medium was replaced, followed by treatment with PYBR at concentrations of 5, 10, and 20 μg/mL. After 24 hours, the cells were washed three times with PBS and incubated in 100 μL of ROS working solution at 37° C. for 30 minutes in the dark. Absorbance was then measured at 488/525 nm (FIG. 4). A group not treated with NAC was used as a positive control.

CC(=O)NC(CS)C(=O)O (stereo not drawn) [NAC, 2-acetamido-3-sulfanylpropanoic acid] was tested, and the “cytotoxicity (cell viability)” value [1] was “no cytotoxicity was observed”, the “cell viability after PYBR treatment” value [2] was “significantly restored cell viability” and the “ROS levels after PYBR treatment” value [3] was “significantly reduced ROS levels”.

Source: patent publication US20260167935A1, “METHOD FOR CULTURING TONSIL-DERIVED MESENCHYMAL STEM CELLS USING N-ACETYLCYSTEINE (NAC)” (priority 2023, published 2026)
